Where “and” joins values, the source holds several entries; their conditions need not be identical. Equal values may be shown once. Read-outs that look alike come from different tables or passages of the source.
Tests used:
[1] = system: P. falciparum CAM3.II ring stages (0–3 h post invasion); assay: Plasmodium falciparum ring stage survival assay, resistant strain; format: cell-based; conditions: for Ring stage survival, individual data points (Figure 4C): CAM3.11, replicate experiments
Experimental: (§1) Following tight synchronisation using sorbitol and Percoll® floatation, ring stage CAM3.II and CAM3.IIREV parasites (0–3 h post invasion) at 1% parasitaemia and 2% haematocrit were incubated with 700 nM of compounds or solvent-only controls for exactly 6 h, before removing the drug, thoroughly washing in RPMI with HEPES, and returning to culture conditions for a further 66 h. Some cells were treated with 700 nM artesunate for 72 h as a no-growth control. DNA replication (indicating growth) was measured at the specified time using SYBR Safe DNA Stain. Microscope slide smears of each condition were stained with 10% v/v Giemsa and examined under a light microscope (×1000 magnification); with ‘viable’ (morphologically normal) and ‘non-viable’ (morphologically aberrant; vacuolated or pyknotic) parasites distinguished according to standard protocol (Witkowski et al, [2013]). Images were captured using a Leica ICC50 camera, with a resolution of 76 nm per pixel, and cropped from larger images using Fiji ImageJ.
(§2) Appendix Fraser/Curtis et al.
(§3) Cells were detached from a flask using 0.25% Trypsin with 0.2 g/L EDTA (Sigma T4049) and washed with culture media containing no phenol red. Cells were incubated with a serial dilution of each compound, or media/DMSO alone. The protein synthesis inhibitor cycloheximide (Sigma 01810) at 10 µg/mL was used as a positive control to determine background absorbance. 5,000 cells were seeded in each well. After 96 hours, 0.45 mg/mL methylthiazolyldiphenyl-tetrazolium bromide (MTT; Sigma M2128) was added and incubated for a further two hours, before mixing 1.1:1 with 10% w/v sodium dodecyl sulfate (SDS) to solubilise crystals and freezing the plate at -18 °C to stop the assay. Plates were defrosted at room temperature and absorbance was read at 570 nm in an Infinite M1000 pro plate reader […]
(§4) Plasmodium falciparum Ring Stage Survival Assay
(§5) Ring stage survival assays were conducted according to standard protocols with some modifications (27, 28). CAM3.11 and CAM3.11REV parasites were sorbitol synchronised twice, 12 hours apart, and then incubated for a further 30 hours until the majority of the parasites were mature schizonts (with clearly separated nuclei). Pelleted RBCs were incubated at 37 °C with heparinised RPMI for 15 minutes, and then centrifuged over 75% Percoll® in PBS for 15 minutes at 1,000 g. Mature schizonts were collected, washed with warm RPMI, and cultured for exactly three hours with fresh uRBCs and culture media. After 3 hours, the cultures were sorbitol synchronised and incubated in duplicate with 700 nM of artesunate, PAYb076a, GGA5, HJB8a53, a DMSO solvent-only control or media alone for exactly six hours, before removing the drug, washing in RPMI, and returning to culture conditions. Samples of each cell suspension were transferred to a -18 °C freezer at the start of the assay (time = 0) or treated for the entire 72 hours with 700 nM artesunate to determine background fluorescence under no-growth conditions. After a further 66 hours of incubation (totalling 72 hours), cells were […]
(§6) resuspended, and a sample from each well was transferred to a fresh plate and frozen at -18 °C.
(§7) Microscope slide smears were made using the remaining cells and stained with 10% v/v Giemsa. Plates were thawed and SYBR Safe DNA Gel Stain (final concentration 1/10,000) diluted in lysis buffer (as above) was added for DNA detection at 490 nm excitation / 520 nm emission on a FLUOstar Optima fluorescence plate reader. Parasite proliferation and viability were also assessed using Giemsa-stained smears examined under a light microscope (1,000× magnification); with ‘viable’ and ‘non-viable’ (vacuolated or pyknotic) parasites distinguished according to standard protocol. Images were captured using a Leica ICC50 camera, with a resolution of 76 nm per pixel.
(§8) Growth inhibition data were normalised by subtracting background fluorescence, […]

[2] = system: P. falciparum CAM3.IIREV ring stages (0–3 h post invasion); assay: Plasmodium falciparum ring stage survival assay, susceptible revertant strain; format: cell-based; conditions: for Parasite morphology in Giemsa-stained smears: 700 nM, 6 h treatment, 66 h further growth, CAM3.IIREV susceptible; for Ring stage survival, individual data points (Figure 4C): CAM3.11REV, replicate experiments
Experimental: as §1, §2, §3, §4, §5, §6, §7, §8

[3] = system: asexual P. falciparum 3D7 wild-type parasites; assay: P. falciparum asexual growth inhibition assay (SYBR Safe DNA replication); format: cell-based, Plasmodium falciparum; design: Figure 5B dose-response source data (growth, replicate values): unit not given here; conditions: for IC50: 72 h, read-out: IC50, P. falciparum asexual growth inhibition; for Figure 5B dose-response source data (growth, replicate values): individual replicates
In short: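 Sorbitol-synchronised ring-stage cultures at 1% parasitaemia and 1% haematocrit were exposed to 2-fold compound dilutions at 37 °C under microaerophilic conditions for 24, 48 or 72 h. Growth was read by SYBR Safe fluorescence of freeze-thaw lysates, with 200 nM chloroquine or artesunate defining background.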

[4] = system: asexual P. falciparum CAM3.II (Resistant); assay: P. falciparum asexual growth inhibition assay, resistant strain; format: cell-based; conditions: Plasmodium falciparum, 72 h, read-out: IC50, P. falciparum asexual growth inhibition
Experimental: (§9) P. falciparum asexual parasite assays commenced with ring-stage parasites at 1% parasitaemia and 1% haematocrit. 200 nM chloroquine (Sigma C6628) or artesunate (Sigma A3731) was used as a no-growth control. DNA replication (indicating growth) was measured at the specified time using SYBR Safe DNA Gel Stain (Invitrogen 33102) and a fluorescence microplate reader (Smilkstein et al, [2004]; Spry et al, [2013]).
as §2
(§10) Growth and Viability Inhibition Assays:
(§11) Plasmodium falciparum Growth Inhibition Assays:
(§12) P. falciparum parasites were maintained under routine culture conditions in red blood cells and RPMI 1640-Hepes with Glutamax, supplemented with 10 mM D-glucose, 480 μM hypoxanthine, 20 μg/mL gentamicin, 0.375% (w/v) AlbuMAXTM II (Thermo Fisher 11021029), and 2.5% v/v heat-inactivated human serum (17). Cultures were maintained at 37 °C […]
(§13) Growth inhibition was investigated according to methods described by Smilkstein et al. (19) with modifications by Spry et al. (20). […] 200 nM chloroquine (Sigma C6628) or artesunate (Sigma A3731) was used as a positive control to determine background fluorescence. The parasitaemia of a culture containing predominantly ring stage parasites was counted by Giemsa smear. […] Fluorescence was detected at 490 nm excitation/ 520 nm emission on a FLUOstar Optima fluorescence plate reader (BMG Labtech).

[5] = system: asexual P. falciparum CAM3.IIREV (Susceptible); assay: P. falciparum asexual growth inhibition assay, revertant strain; format: cell-based; conditions: Plasmodium falciparum, 72 h, read-out: IC50, P. falciparum asexual growth inhibition
Experimental: as §9, §2, §10, §11, §12, §13

[6] = system: human embryonic kidney cells (HEK293); assay: Human embryonic kidney cell viability assay (MTT); format: cell-based; conditions: 96 h, HEK293; read-out: IC50, human embryonic kidney cell inhibition (viability)
Experimental: HEK293 cell viability assays commenced with 5000 cells per well. 10 µg/mL cycloheximide was used as a no-growth control. Metabolic capacity (indicating viability) was measured in an absorbance microplate reader after incubation with 0.45 mg/mL methylthiazolyldiphenyl-tetrazolium bromide (MTT; Sigma M2128) for 2 h followed by crystal solubilisation in SDS. […]
Human Embryonic Kidney Cell Viability Assays:
Human Embryonic Kidney Cell (HEK293) culture:
The HEK293 cell line was maintained under routine culture conditions in DMEM containing 3.7 g/L NaHCO3 supplemented with 10% FBS, 200 μM glutamine, 100 units/mL penicillin, and 100 μg/mL streptomycin at 37 °C in a humidified 5% CO2 incubator.
as §3, with “assay.” for “assay. Plates were defrosted at room temperature and absorbance was read at 570 nm in an Infinite M1000 pro plate reader”

[7] = 700 nM, 6 h treatment, 66 h further growth, CAM3.II resistant

SMILES: CC(C)OC(=O)CCC(=O)OC1OC2OC3(C)CCC4C(C)CCC(C1C)C24OO3 (stereo not shown) [ART-link]
- Parasite morphology in Giemsa-stained smears [1, 7]: a combination of morphologically normal parasites (green arrows) and morphologically aberrant pyknotic or vacuolated forms
- Ring stage survival, individual data points (Figure 4C) ([1]; listed as GGA5): 38.82 and -2.964 and -8.71 and 33.42
- Parasite morphology in Giemsa-stained smears [2]: only morphologically aberrant parasites were present
- Ring stage survival, individual data points (Figure 4C) ([2]; listed as GGA5): -11.62 and -13.91 and -17.49 and -9.785

SMILES: CC1CCC2C(C)C(OC(=O)CCC(=O)OC3CCC4C5CC=C6CC(O)CCC6(C)C5CCC34C)OC3OC4(C)CCC1C32OO4 (stereo not shown) [C-17-ART]
- IC50 ([3]; Plasmodium falciparum, 3D7, 72 h, 3D7 (Susceptible)): 10.6 nM
- IC50 [4]: 10.5 nM
- IC50 [5]: 11 nM
- Parasite morphology in Giemsa-stained smears [1, 7]: only aberrant, non-viable parasites were visible
- Ring stage survival, growth [1, 7]: complete growth inhibition
- Ring stage survival, individual data points (Figure 4C) ([1]; listed as PAYb076a): 5.574 and -1.717 and 1.804 and -19.52
- Parasite morphology in Giemsa-stained smears [2]: only morphologically aberrant parasites were present
- Ring stage survival, individual data points (Figure 4C) ([2]; listed as PAYb076a): -3.583 and -11.02 and -24.87 and -14.11

SMILES: CC(C)(C)OOC(C)(C)C [Di-tert-butyl peroxide, di-tert-butyl peroxide, reference compound]
- IC50 [3]: > 25000 nM
- Figure 5B dose-response source data (growth, replicate values) ([3]; Concentration 0.039063 uM): 85.18 and 102.4 and 102.7
- Figure 5B dose-response source data (growth, replicate values) ([3]; Concentration 0.078125 uM): 74.12 and 92.74 and 101.2
- Figure 5B dose-response source data (growth, replicate values) ([3]; Concentration 0.15625 uM): 95.05 and 90.78 and 92.5 and 91.43 and 92.81 and 96.62 and 92.25 and 92.33 and 93.69
- Figure 5B dose-response source data (growth, replicate values) ([3]; Concentration 0.1953125 uM): 104.7 and 100.3 and 94.44
- Figure 5B dose-response source data (growth, replicate values) ([3]; Concentration 0.3125 uM): 87.88 and 89.77 and 89.55 and 85.58 and 96.69 and 99.28 and 97.57 and 87.06 and 96.72
- Figure 5B dose-response source data (growth, replicate values) ([3]; Concentration 0.390625 uM): 99.53 and 101.7 and 93.86
- Figure 5B dose-response source data (growth, replicate values) ([3]; Concentration 0.625 uM): 89.02 and 90.9 and 80.19 and 84.44 and 92.83 and 101.4 and 93.27 and 93.75 and 89.82
- Figure 5B dose-response source data (growth, replicate values) ([3]; Concentration 0.78125 uM): 99.16 and 101.8 and 97.31
- Figure 5B dose-response source data (growth, replicate values) ([3]; Concentration 1.25 uM): 89.1 and 88.53 and 87.02 and 94.06 and 87.75 and 98.34 and 95.66 and 89.13 and 92.05
- Figure 5B dose-response source data (growth, replicate values) ([3]; Concentration 1.5625 uM): 96.44 and 101 and 94.23
- Figure 5B dose-response source data (growth, replicate values) ([3]; Concentration 2.5 uM): 90.99 and 88.19 and 94.1 and 84.35 and 90.32 and 96.8 and 92.38 and 90.3 and 90.14
- Figure 5B dose-response source data (growth, replicate values) ([3]; Concentration 3.125 uM): 98.75 and 99.8 and 93.33
- Figure 5B dose-response source data (growth, replicate values) ([3]; Concentration 5 uM): 88.2 and 86.72 and 93.06 and 89.82 and 70.14 and 95.75 and 93.09 and 90.02 and 87.03
- Figure 5B dose-response source data (growth, replicate values) ([3]; Concentration 6.25 uM): 99.66 and 102.1 and 96.08
- Figure 5B dose-response source data (growth, replicate values) ([3]; Concentration 10 uM): 83.27 and 83.85 and 83.43 and 96.65 and 93.69 and 94.13 and 91.37 and 89.09 and 89.4
- Figure 5B dose-response source data (growth, replicate values) ([3]; Concentration 12.5 uM): 105.9 and 89.05 and 98.44
- Figure 5B dose-response source data (growth, replicate values) ([3]; Concentration 25 uM): 103.6 and 101.6 and 94.82
- IC50 [6]: > 100000 nM
